Test results: US11414385B2, “Compounds and methods for treating, detecting, and identifying compounds to treat apicomplexan parasitic diseases” (The University of Chicago, priority 2015, dated 2022)
In brackets after ≈: the same amount, converted by molar mass. Entries after “also recorded” stand apart in the source; their conditions may differ.

Assays:
Toxoplasma RPS13 delta = assay: RPS13 delta G0 arrested parasite in interferon gamma knockout mice; assay type: in vivo, Toxoplasma gondii; conditions: with tafenoquine 3 mg/kg single dose, minus tetracycline
Experimental: RPS13 Δ. This G0 arrested parasite persists in tissue culture for prolonged times in the absence of tetracycline. The parasite (x) was used to infect interferon gamma knockout mice. For the first y days no tetracycline was administered. After that time tetracycline was administered. Mice were observed and at the time they appeared ill or at the termination of the experiment they were euthanized and tissues fixed in formalin and stained with hematoxylin and eosin or immunoperoxidase stained and parasite burden was assessed.

HEP G2 = assay: IC50 with HEP G cells (toxicity); assay type: cell-based, human; conditions: not toxic
[1] = test system: Toxoplasma gondii (Pru strain expressing luciferase) tachyzoites; assay: Toxoplasma in vivo, IVIS luminescence in mice; conditions: 5 mg/kg/day IP
Experimental: IVIS. Mice were infected intraperitoneally with 20×10^3 Toxoplasma gondii (Pru strain expressing luciferase) tachyzoites. Treatment commenced 2 hours later with JAG21 (5 mg/kg) which was dissolved in DMSO and administered intraperitoneally in a total volume of 0.05 ml. Mice were imaged every second day starting on day 4 post infection using a IVIS Spectrum (Caliper Life Sciences) for a 1 minute exposures, with medium binning, 20 minutes post injection with 150 mg/kg of D-luciferin potassium salt solution.

[2] = test system: human foreskin fibroblasts (HFF); assay: Cytotoxicity assay with WST-1 in HFF; assay type: cell-based; conditions: 10 μM and 50 μM, WST-1
Experimental: (§1) Toxicity assays were conducted using WST-1 cell proliferation reagent (Roche). HFF were grown on a flat, clear-bottomed, black 96-well plate. Confluent HFF were treated with inhibitory compounds at concentrations equal to those being tested in challenge assays. Compounds were diluted in IMDM-C, and 20 μl were added to each designated well, with triplicates for each condition. A gradient of 2 fold-decreasing concentrations of DMSO in clear IMDM-C was used as a control. The plate was incubated for 72 hours at 37° C. 10 μl of WST-1 reagent (Roche) were added to each well and the cells were incubated for 30 to 60 minutes. Absorbance was read using a fluorometer at 420 nm. A higher degree of color change (and absorbance) indicated mitochondrial activity and cell viability.
as §1, with “(Roche) as described in Fomovska, et. al. (18,19).” for “(Roche).”, “of 10 μM and 50 μM.” for “equal to those being tested in challenge assays.”, “DMSO from 10% to 0%” for “DMSO”, “fluorimeter” for “fluorometer”

CYP = CYP profile; assay type: in vitro ADME
FaSSIF solubility pH 6.5 = assay type: physicochemical
[3] = test system: S. cerevisiae M221Q and M221F cytochrome b mutants; assay: Yeast growth inhibition, cytochrome b Qi mutants; assay type: cell-based, Saccharomyces cerevisiae
Description: (§2) Three S. cerevisiae strains were used: M221Q and M221F cytochrome b mutants and wild type. They share the same nuclear genetic background deriving from AD1-9 (kindly given by M. Ghislain, UCL, Belgium). AD1-9 harbors multiple deletions in the ABC transporter genes that render the strain more sensitive to drugs than standard yeast strains^S65.
Cytochrome b mutant M221F was generated by mitochondrial transformation as described. M221 Q was selected as suppressor from a respiratory deficient mutant. Analysis of revertants from respiratory deficient mutants within the center N of cytochrome b in Saccharomyces cerevisiae.
Protocol: Yeast strains were grown over 48 hours at 33° C. in liquid YPG medium [1% yeast extract, 2% (wt/vol) peptone, and 3% (vol/vol) glycerol). Cultures were diluted to an OD600 of 0.05 and grown for 2 hrs. Cultures were then combined with YPG containing 6% melted agar for a total volume of 15-20 mL and poured onto OmniTray single-well rectangular plates that measured 86 mm by 128 mm (ThermoScientific). Filter paper disks (7 mm diameter, […]) were placed onto the cooled agar plates. […] Images were obtained after 4 days using GelDoc XR Imaging System (BioRad) and Quantity One software. Drug effect was assessed by the presence and size of a zone of inhibition around the disks.

MDCK-MDR1 cells = assay: in vitro; assay type: in vitro ADME; conditions: dog, MDCK-MDR1
[4] = Cytotoxicity assay with WST-1 in HFF; assay type: cell-based; conditions: human, human foreskin fibroblasts (HFF); read-out: HFF Toxicity CC50
Experimental: as §1
as §1, with “(Roche) as described in Fomovska, et. al. (18,19).” for “(Roche).”, “of 10 μM and 50 μM.” for “equal to those being tested in challenge assays.”, “DMSO from 10% to 0%” for “DMSO”, “fluorimeter” for “fluorometer”

[5] = test system: S. cerevisiae wild type parental AD1-9 strain; assay: Yeast growth inhibition on glycerol medium, wild type; assay type: cell-based, Saccharomyces cerevisiae; conditions: 1 mM, 100, 5 and 1 μM
Experimental: as §2
Protocol: Yeast strains were grown over 48 hours at 33° C. in liquid YPG medium [1% yeast extract, 2% (wt/vol) peptone, and 3% (vol/vol) glycerol). Cultures were diluted to an OD600 of 0.05 and grown for 2 hrs. Cultures were then combined with YPG containing 6% melted agar for a total volume of 15-20 mL and poured onto OmniTray single-well rectangular plates that measured 86 mm by 128 mm (ThermoScientific). Filter paper disks (7 mm diameter, […]) were placed onto the cooled agar plates. […] A single disk with DMSO on each plate was used as a control. Plates were incubated at 33° C. Images were obtained after 4 days using GelDoc XR Imaging System (BioRad) and Quantity One software. Drug effect was assessed by the presence and size of a zone of inhibition around the disks.

Structure (SMILES) | protection against RPS13 delta in combination with tafenoquine (Toxoplasma RPS13 delta) | toxicity to human HepG cells (HEP G2) | effect on T. gondii tachyzoites in mice [1] | toxicity to human foreskin fibroblasts [2] | CYP profile (CYP) | solubility (FaSSIF solubility pH 6.5; FaSSIF, pH 6.5, fassif) | improved FaSSIF/FeSSIF (pH 6.5) solubility (FaSSIF solubility pH 6.5; relative to ELQ 271) | growth inhibition of M221Q / M221F yeast [3] | MDCK-MDR1 Efflux Ratio (MDCK-MDR1 cells) | CC50 at 72 h [4] | growth inhibition of wild type yeast [5]
Cc1[nH]c2c(c(=O)c1-c1ccc(Oc3ccc(OC(F)(F)F)cc3)cc1)CCCC2 [JAG21, 2-methyl-3-(4-(4-(trifluoromethoxy)phenoxy)phenyl)-5,6,7,8-tetrahydroquinolin-4(1H)-one] | both needed to contain RPS 13Δ; also recorded: protect against a G0 arrested parasite; also recorded: superior to either alone | > 17 µM | protects against Toxoplasma gondii tachyzoites; also recorded: cleared; also recorded: eliminates T. gondii tachyzoites | no toxicity | clean | – | – | – | – | – | –
Cc1[nH]c2c(c(=O)c1-c1ccc(Oc3ccccc3)cc1)CCCC2 [MJM170] | – | – | – | – | – | 9.8 µM (≈ 3.25 µg/mL) | 3 fold | resistant | 1.23 | 20 µM | effective
